According to patent US12098356B2, “Effects of space travel on human brain cells” (EMULATE, Inc., priority 2017, dated 2024):

System: glutamatergic neurons on the Brain-Chip
Assay: Calcium imaging (Fluo-4 AM) of neuronal activity on the Brain-Chip
Type: cell-based, human
Settings: NMDA and AMPA receptor inhibition (DAP5 and CNQX respectively), compared to control without inhibitors
From the text: FIG. 30A Spontaneous activity was studied by means of calcium imaging, enabling the investigation of neuronal activity of single cells and the network as a whole. Fluo-4 AM, a calcium sensitive fluorescent dye, was loaded onto the cells, and intracellular calcium fluctuations were monitored over time using high-speed imaging. […] FIG. 38A-C Pharmacological Targeting of the Glutamatergic Neurons in the Brain-Chip. […] Scale bars=200 μm. […] FIG. 38A-C Pharmacological Targeting of the Glutamatergic Neurons in the Brain-Chip. […] Scale bars=200 μm.

SMILES: N#Cc1cc2c(cc1[N+](=O)[O-])=NC(=O)C(=O)N=2 [CNQX, 6-cyano-7-nitroquinoxaline-2,3-dione]
- effect on percentage of active neurons: reduced the percentage of active neurons
